Test results published in article PMC11821258 (Molecules, 2025).
Like-named read-outs stand apart in the source and are kept apart here.

Key:
Format in all cases: cell-based
[1] = system: human biphenotypic B myelomonocytic leukemia MV4-11; experiment: Antiproliferative activity, MTT assay, 72 h; details: for IC50: Homo sapiens, MV4-11, 72 h; for SI: IC50 MCF-10A / IC50 MV4-11
Experimental: (§1) The tested compounds were dissolved in DMSO (dimethyl sulfoxide) to a concentration of 10 mg/mL and then were diluted in the culture medium to reach the final concentrations. The cells were plated in 384-well plates at a density of 1 × 10^3 or 2 × 10^3 (MCF-10A) cells per well (Greiner Bio One, Kremsmünster, Austria) and in 96-well plates (MV4-11 cell; Sarstedt, Nümbrecht, Germany) at a density of 5 × 10^3 cells per well. After 24 h of incubation, the tested compounds were added at concentrations in the range of 100–0.03 µg/mL and, after the next 72 h of exposure to tested agents, the cytotoxic effect of all agents was examined using the MTT (MV4-11) or SRB assay, described previously. The values of IC50 (inhibitory concentration 50%) were calculated separately for each experiment (repeated 3–5 times) using the Prolab-3 system which is based on Cheburator 0.4 software. Doxorubicin was applied as a reference drug. The IC50 values in µg/mL were calculated to µM.
This assay was used against MV4-11 leukemia cells and was performed after 72 h of exposure of the tested agents to the cells. For each well, 20 µL of the MTT [3-(4,5-dimethylthiazol-2-yl)-2,5-diphenyl tetrazolium bromide] solution (5 mg/mL, Merck, Darmstadt, Germany) was added. After the incubation time (4 h at 37 °C), 80 µL of the lysing buffer was added to each well (mixture of 225 mL of DMF (dimethylformamide) Avantor, Poland; 67.5 g of SDS, Merck, Darmstadt, Germany; and 275 mL of distilled water). After the next 24 h, the absorbance of the samples was measured at a 570 nm wavelength on a Synergy H4 photometer (BioTek Instruments, Winooski, VT, USA). The absorbance of wells without the cells was the background.

[2] = system: human breast cancer MCF-7; experiment: Antiproliferative activity, SRB assay, 72 h; details: for IC50: Homo sapiens; for SI: IC50 MCF-10A / IC50 MCF-7
Experimental: as §1
(§2) The cytotoxicity assay was performed after the cultured cells were exposed to the tested agents for 72 h using the authomatic Washer dyspenser EL406, BioTek. At the first step, the washer dispenser collected 40 µL of cultured medium from each wells, and then the cells were fixed by gently layering 20 µL per well of cold 25% trichloroacetic acid to each well. The incubation time was 40 min and then the plates were washed with tap water. The cells were stained with 20 µL per well of 0.1% sulforhodamine B (SRB, Merck, Darmstadt, Germany) for 30 min. Unbound sulforhodamine B was removed by washing it with 1% acetic acid. The protein-bound dye was extracted in 30 min using 70 µL per well of 10 mM unbuffered Tris base (Merck, Darmstadt, Germany). The absorbance (at 540 nm) was measured on a Synergy H4 photometer (BioTek Instruments, Winooski, VT, USA). The absorbance of the wells without the cells was the background.

[3] = system: human colon cancer HCT116 cells; experiment: Antiproliferative activity, SRB assay, 72 h; details: for SI: IC50 MCF-10A / IC50 HCT116
Experimental: as §1, §2

[4] = system: human lung carcinoma A549; experiment: Antiproliferative activity, SRB assay, 72 h; details: for IC50: A549, 72 h; for SI: IC50 MCF-10A / IC50 A549
Experimental: as §1, §2

[5] = system: human prostate adenocarcinoma PC-3; experiment: Antiproliferative activity, SRB assay, 72 h; details: for IC50: Homo sapiens; for SI: IC50 MCF-10A / IC50 PC-3
Experimental: as §1, §2

[6] = system: human normal epithelial cells from the mammary gland (MCF-10A); experiment: Cytotoxicity on non-tumorigenic cells, SRB assay, 72 h
Experimental: as §1, §2

[7] = system: human melanoma Hs294T cells; experiment: Antiproliferative activity, SRB assay, 72 h; details: for IC50: 72 h; for SI: IC50 MCF-10A / IC50 Hs249T (so in the source)
Experimental: as §1, §2

[8] = system: human pancreas cancer MiaPaca-2 cells; experiment: Antiproliferative activity, SRB assay, 72 h; details: for SI: IC50 MCF-10A / IC50 MiaPaca-1 (so in the source)
Experimental: as §1, §2

[9] = MCF7, MCF-7, 72 h, SRB, read-out: IC50
[10] = Homo sapiens, HCT-116, HCT116, 72 h, SRB, read-out: IC50
[11] = Homo sapiens, SRB, read-out: IC50
[12] = PC-3, 72 h, SRB, read-out: IC50
[13] = Homo sapiens, MCF-10A normal cells, SRB, read-out: IC50
[14] = Homo sapiens, Hs 294T, Hs249T (so in the source), SRB, read-out: IC50
[15] = Homo sapiens, MIA PaCa-2, MiaPaca-1 (so in the source), 72 h, SRB, read-out: IC50

Row | Compound | IC50 ([1]; MTT, read-out: IC50) [µM] | SI [1] | IC50 [2, 9] [µM] | SI [2] | IC50 [3, 10] [µM] | SI [3] | IC50 [4, 11] [µM] | SI [4] | IC50 [5, 12] [µM] | SI [5] | IC50 [6, 13] [µM] | IC50 [7, 14] [µM] | SI [7] | IC50 [8, 15] [µM] | SI [8] | other results
1 | C#CC(=O)OC[C@]12CC[C@@H](C(=C)C)C1C1CCC3[C@@]4(C)CC[C@H](OC(=O)CC(C)(C)C(=O)O)C(C)(C)C4CC[C@@]3(C)[C@]1(C)CC2 (stereo partly shown) [Compound 5a] | 0.6 ± 0.175 | 21.17 | 19.4 ± 3.1 | 0.65 | 3.64 ± 0.6 | 3.49 | 10.7 ± 3 | 1.18 | 0.85 ± 0.17 | 14.94 | 12.7 ± 0.5 | – | – | – | – | –
2 | C=C(C)[C@@H]1CC[C@]2(COC(C)=O)CC[C@]3(C)[C@H](CC[C@@H]4[C@@]5(C)CC[C@H](O)C(C)(C)[C@@H]5CC[C@]43C)[C@@H]12 [A, 28-O-acetylbetulin, reference compound] | 41.1 ± 8.46 | 3.02 | 72.4 ± 6.6 | 1.71 | 40.6 ± 13.6 | 3.05 | 27.8 ± 10.5 | 4.45 | 80.7 ± 13.4 | 1.54 | 124 ± 33 | 128 ± 14.2 | 0.97 | 127 ± 16.3 | 0.98 | –
3 | C=C(C)[C@@H]1CC[C@]2(COC(=O)C#Cc3ccccc3)CC[C@]3(C)C(CCC4[C@@]5(C)CC[C@H](OC(=O)CC(C)(C)CC(=O)O)C(C)(C)C5CC[C@]43C)C12 (stereo partly shown) [Compound 4f] | – | – | – | – | – | – | – | – | – | – | – | – | – | – | – | IC50 [1]: 46.6 ± 11.8 µM; IC50 ([2]; MCF7, 72 h): 131 ± 8.83 µM; IC50 ([3]; HCT116, 72 h, SRB): does not show activity and Neg; IC50 ([4]; SRB): does not show activity and Neg; IC50 ([7]; Hs249T (so in the source), SRB): Neg; IC50 ([8]; MiaPaca-1 (so in the source), 72 h, SRB): Neg; IC50 ([5]; 72 h): 95.8 ± 27.1 µM; IC50 ([6]; MCF-10A normal cells, SRB): Neg
4 | C=C(C)[C@@H]1CC[C@]2(COC(C)=O)CC[C@]3(C)C(CCC4[C@@]5(C)CC[C@H](OC(=O)CCC(=O)O)C(C)(C)C5CC[C@]43C)C12 (stereo partly shown) [Compound 3] | – | 8.82 | – | 1.94 | – | 2.55 | – | 6.53 | – | 1.50 | – | – | 1.53 | – | 0.97 | IC50 [1]: 3.93 ± 1.54 µM; IC50 ([2]; MCF7, 72 h): 17.3 ± 6.33 µM; IC50 ([3]; Homo sapiens, HCT-116, 72 h): 13.2 ± 1.02 µM; IC50 ([4]; Homo sapiens): 5.13 ± 0.85 µM; IC50 ([7]; Homo sapiens, Hs 294T): 21.9 ± 4.27 µM; IC50 ([8]; Homo sapiens, MIA PaCa-2, 72 h): 34.5 ± 5.47 µM; IC50 ([5]; 72 h): 22.4 ± 2.56 µM; IC50 ([6]; Homo sapiens, MCF-10A): 33.5 ± 1.88 µM
5 | C=C(C)[C@@H]1CC[C@]2(COC(=O)C#CC3CC3)CC[C@]3(C)C(CCC4[C@@]5(C)CC[C@H](OC(=O)CC(C)(C)CC(=O)O)C(C)(C)C5CC[C@]43C)C12 (stereo partly shown) [Compound 4e] | 3.16 ± 0.88 | 21.50 | 25.7 ± 4.43 | 2.60 | 23.2 ± 5.91 | 2.93 | 59.8 ± 22.2 | 1.14 | 15.2 ± 5.91 | 4.47 | 68 ± 34.9 | 19.8 ± 5.61 | 3.40 | 67.1 ± 14.5 | 1.01 | –
6 | C=C(C)[C@@H]1CC[C@]2(COC(=O)C#CC)CC[C@]3(C)C(CCC4[C@@]5(C)CC[C@H](OC(=O)CC(C)(C)CC(=O)O)C(C)(C)C5CC[C@]43C)C12 (stereo partly shown) [Compound 4c] | 3.23 ± 1.38 | 10.10 | 16.6 ± 2.15 | 1.96 | 8.45 ± 2.15 | 3.85 | 7.37 ± 2.3 | 4.42 | 10.1 ± 2.46 | 3.21 | 32.6 ± 2.15 | 9.68 ± 1.54 | 3.37 | 22.7 ± 5.53 | 1.43 | –
7 | C=C(C)[C@@H]1CC[C@]2(CO)CC[C@]3(C)C(CCC4[C@@]5(C)CC[C@H](OC(=O)CC(C)(C)C(=O)O)C(C)(C)C5CC[C@]43C)C12 (stereo partly shown) [Compound 5] | 7.81 ± 2.8 | 3.43 | 29.2 ± 3.85 | 0.92 | 14.7 ± 4.55 | 1.82 | 9.11 ± 0.87 | 2.94 | 27 ± 3.85 | 1.01 | 26.8 ± 2.1 | 30.8 ± 1.4 | 0.87 | 30.7 ± 2.63 | 0.87 | –
